Calls of active or inactive are those of the source. No cut-off for these calls is given here. A value given as a limit tells only on which side of the number the result lay.

Test [1] has as its target T1, 26S proteasome non-ATPase regulatory subunit 10 (Homo sapiens) (UniProt O75832).
T1 sequence (whole entry): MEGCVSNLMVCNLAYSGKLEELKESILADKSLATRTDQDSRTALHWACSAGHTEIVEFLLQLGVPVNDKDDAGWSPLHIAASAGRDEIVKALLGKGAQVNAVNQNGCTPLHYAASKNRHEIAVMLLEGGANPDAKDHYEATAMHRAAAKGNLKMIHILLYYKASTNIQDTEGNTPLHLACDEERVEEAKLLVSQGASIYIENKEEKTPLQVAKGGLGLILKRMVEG
The test is described as follows: Binding affinity to recombinant human His-tagged gankyrin expressed in Escherichia coli assessed as change in melting temperature at 300 uM by SYPRO orange dye based thermal shift assay.

The test system of test [2] is A549. Description: Cytotoxicity against human A549 cells assessed as reduction in cell viability incubated for 72 hrs by MTT assay. In kind it is functional, cell-based. The settings on record: A549, 72 h. Background: Tetrazolium dyes change colour on reduction, which living cells bring about.
The test system of test [3] is MDA-MB-231. The test is described as follows: Cytotoxicity against human MDA-MB-231 cells assessed as reduction in cell viability incubated for 72 hrs by MTT assay. It counts as functional, cell-based. The note with it: MDA-MB-231, 72 h.
Test [4] concerns HepG2. The test is described as follows: Cytotoxicity against human HepG2 cells assessed as reduction in cell viability incubated for 72 hrs by MTT assay. It counts as functional, cell-based. The note with it: HepG2, 72 h.
Test [5] concerns Hep 3B2. Description: Cytotoxicity against human Hep3B cells assessed as reduction in cell viability incubated for 72 hrs by MTT assay. It counts as functional, cell-based.
Test [6] can be described thus: Cytotoxicity against human HuH-6 cells assessed as reduction in cell viability incubated for 72 hrs by MTT assay. The settings on record: HuH-6, 72 h. In kind it is functional, cell-based.
Test [7] has as its target T1, 26S proteasome non-ATPase regulatory subunit 10 (Homo sapiens). Description: Inhibition of gankyrin in human HuH-6 cells assessed as increase in p53 level at 25 to 100 uM by immunoblot assay. In kind it is cell-based. The note with it: dose 25-100 µM.
The target is the same in test [8]. The test is described as follows: Inhibition of gankyrin in human HuH-6 cells assessed as increase in phopho-Rb level at 25 to 100 uM by immunoblot assay. It counts as cell-based. The settings on record: dose 25-100 µM. (In western blotting, separated proteins are transferred to a membrane and probed.)
Test [9] shares this target. The test is described as follows: Inhibition of gankyrin in human Hep3B cells assessed as increase in p53 level at 12.5 to 50 uM by immunoblot assay. In kind it is cell-based. The settings on record: dose 12.5-50 µM.
For test [10] the target is unchanged. Description: Inhibition of gankyrin in human Hep3B cells assessed as increase in CUGBP1 level at 12.5 to 50 uM by immunoblot assay. In kind it is cell-based. The note with it: dose 12.5-50 µM.
The test system of test [11] is A549. Description: Potency index, ratio of IC50 of Cjoc42 to IC50 of compound for cytotoxicity against human A549 cells assessed as reduction in cell viability incubated for 72 hrs by MTT assay. In kind it is functional.
The test system of test [12] is MDA-MB-231. The test is described as follows: Potency index, ratio of IC50 of Cjoc42 to IC50 of compound for cytotoxicity against human MDA-MB-231 cells assessed as reduction in cell viability incubated for 72 hrs by MTT assay. It counts as functional.
In test [13] the test system is HepG2. Description: Potency index, ratio of IC50 of Cjoc42 to IC50 of compound for cytotoxicity against human HepG2 cells assessed as reduction in cell viability incubated for 72 hrs by MTT assay. It counts as functional.
Test [14] relates to Hep 3B2. The test is described as follows: Potency index, ratio of IC50 of Cjoc42 to IC50 of compound for cytotoxicity against human Hep3B cells assessed as reduction in cell viability incubated for 72 hrs by MTT assay. In kind it is functional.
A short description of test [15]: Potency index, ratio of IC50 of Cjoc42 to IC50 of compound for cytotoxicity against human HuH-6 cells assessed as reduction in cell viability incubated for 72 hrs by MTT assay. It counts as functional.

By ΔTm is commonly meant the change in melting temperature against a reference sample. As a reminder, the IC50 is the concentration needed to halve the response being measured. Regarding `O=C(O)COc1ccc(CC(=O)O)cc1-c1cc(-c2ccc(Cl)cc2)n(CCc2ccccc2)n1`, in test [1], the ΔTm was found to be 1.94 °C. Also, the IC50 in test [2], in test [3], in [4], in [5] and in test [6] was > 100 µM in each case. Besides, the inhibition entry in [7], in test [8], in test [9] and in [10] was “Active” in each case.

On to `COC(=O)c1ccc(-n2cc(CCCOS(=O)(=O)c3ccc(C)cc3)nn2)cc1`, for which, in [1], the ΔTm worked out at 0.5 °C. In addition, the IC50 in test [2] is > 100 µM; in test [3], > 100 µM; in test [4] it was > 100 µM; in [5] it was > 100 µM; in [6], 70.7 µM.

Regarding `COc1cccc2c1O[C@@](C)(CCC(=O)O)[C@@H]1CC[C@@H](CCCN)O[C@@H]21`, the ΔTm in test [1] turned out to be 0.17 °C.

Take `CS(=O)(=O)Cc1cccc(C(=O)NS(=O)(=O)c2ccc(S(C)(=O)=O)cc2)c1`: the ΔTm in [1] turned out to be 0.29 °C.

For the compound `O=C(O)CN(Cc1ccc(Cl)cc1)C(=O)c1cnc(N2CCC[C@H]2COc2ccc(Cl)cc2)nc1CCc1ccccc1`, the ΔTm in [1] was determined as 7.92 °C. Further, the IC50 in test [2] came to 45.6 µM; in test [3], 88.1 µM; in test [4], 52.7 µM; in test [5] it was 25.5 µM; in test [6], 44.3 µM. The “Ratio IC50” value is given as 2.2 in test [11]; 1.1 in test [12]; 1.9 in test [13]; 3.9 in test [14]; 1.6 in test [15].

Source of the values: ChEMBL document CHEMBL4819091, “Identification of novel gankyrin binding scaffolds by high throughput virtual screening” (Bioorg Med Chem Lett, 2021).
